Data taken from patent US12213479B2, “Monoterpenoid/phenylpropanoid-containing compounds and methods of their making and use as herbicides” (KITTRICH CORPORATION, priority 2016, dated 2025).
“Also recorded” adds a separate entry of the source.

Key:
[1] = tested on: treated weeds from each species; experiment: Weed soil drench assay, all treated weed species; format: in vivo; conditions: 5% soil drench; observed at two days after the initial treatment
Experimental: (§1) Formulations of the various active ingredients were created using the monoterpenoid derivatives, potassium hydroxide, and Triton-X 100™ to aid in the solvation of the active ingredient. Formulations included 5% active ingredient by weight (0.5-1 g/100 ml water), with a 1:1 molar ratio of potassium hydroxide used to aid in the solvation (135-269 mg/100 mL for both thymyloxyacetic acid and carvacryloxyacetic acid). […] Observations were performed 2 days and 3 weeks after soil drench to determine the effects of the treatments on the various types and stages of plants. Phytotoxicity is reported as percentage of total plants treated compared to a control treatment that was exposed to a similar formulation (without the active monoterpenoid derivatives).

[2] = tested on: Wood sorrel; experiment: Pre-emergence assay, wood sorrel; format: in vivo; conditions: for pre-emergent effect on wood sorrel (words): 1%, 3-weeks after application; for qualitative growth assessment, pre-emergence: Sorrel, soil treated with 40 ml of 1% solution 1 day after planting, 3 weeks after application
Experimental: (§2) 1-day after seeds/beans were planted, soil was drenched with 40 ml of formulation with 1% active ingredient. This was done to assess germination inhibition in the soil. […] Qualitative growth assessment was made by comparing the treated plants to the untreated controls.

[3] = tested on: Corn; experiment: Pre-emergence assay, corn; format: in vivo; conditions: for pre-emergent effect on corn (words): 1%, 3-weeks after application; for qualitative growth assessment, pre-emergence: Corn, soil treated with 40 ml of 1% solution 1 day after planting, 3 weeks after application
Experimental: (§3) Corn plants were planted under ½″ of potting soil and watered every 2-3 days as necessary. Plants were grown in potting plants (6″ wide×4.5″ deep) with approximately 800 mL of soil for each plant. Plants germinated approximately 4-7 days after being planted. Plants were grown in a greenhouse under a constant temperature and light environment (25±5° C., 12 hr: 12 hr light: dark cycle).
as §2

[4] = tested on: Corn plants; experiment: Soil drench assay, corn plants; format: in vivo; parameters: key to phytotoxicity (qualitative), soil drench: NOE: No Observable Effect; XXX: Dead; -: the lowest phytotoxic effect; --: phytotoxicity that did not result in death; ---: phytotoxicity that did not result in death; ------: the highest; conditions: for phytotoxicity (qualitative), soil drench: Corn, 40 mL
Experimental: Corn plants were planted under ½″ of potting soil and watered every 2-3 days as necessary. Plants were grown in potting plants (6″ wide×4.5″ deep) with approximately 800 mL of soil for each plant. Seeds germinated approximately 4-7 days after being planted. Plants were grown in a greenhouse under a constant temperature and light environment (25±5° C., 12 hr: 12 hr light: dark cycle). Plants were grown until reaching 1-2 weeks old and 3-4 weeks old; these plants served as the “young” and “old” plants in this study, respectively. Formulations of the various active ingredients were created using the monoterpenoid derivatives, potassium hydroxide, and Triton-X 100™ to aid in the solvation of the active ingredient. […] Formulations were applied to the soil next to the base of the stem of the plant to avoid foliar contact. Observations were performed 2 days and 3 weeks after soil drench to determine the effects of the treatments on the various types and stages of plants.

[5] = tested on: Soybean plants; experiment: Soil drench assay, soybean plants; format: in vivo; parameters: key to phytotoxicity (qualitative), soil drench: NOE: No Observable Effect; XXX: Dead; -: the lowest phytotoxic effect; --: phytotoxicity that did not result in death; ---: phytotoxicity that did not result in death; ------: the highest; conditions: for phytotoxicity (qualitative), soil drench: Soybean, 40 mL
Experimental: Soybean plants were planted under 1 cm of potting soil and watered every 2-3 days as necessary. Plants were grown in pots (6″ wide×4.5″ deep) with approximately 800 mL of soil for each plant. Seeds germinated approximately 3-5 days after being planted. Plants were grown in a greenhouse under a constant temperature and light environment (25±5° C., 12 hr: 12 hr light: dark cycle). Plants were grown until reaching 1-2 weeks old and 3-4 weeks old; these plants served as the “young” and “old” plants in this study, respectively.
Formulations of the various active ingredients were created using the monoterpenoid derivatives, potassium hydroxide, and Triton-X 100™ to aid in the solvation of the active ingredient. Formulations consisted of 0.5%-1% active ingredient by weight (0.5-1 g/100 ml water), with a 1:1 molar ratio of potassium hydroxide used to aid in the solvation (135-269 mg/100 mL for both thymyloxyacetic acid and carvacryloxyacetic acid). […] Formulations were applied to the soil next to the base of the stem of the plant to avoid foliar contact. Observations were performed 2 days and 3 weeks after soil drench to determine the effects of the treatments on the various types and stages of plants.

[6] = tested on: soybeans; experiment: Pre-emergence assay, soybean; format: in vivo; conditions: for pre-emergent effect on soybeans (words): 1%, 3-weeks after application; for qualitative growth assessment, pre-emergence: Soy, soil treated with 40 ml of 1% solution 1 day after planting, 3 weeks after application
Experimental: as §3, with “Soybean” for “Corn”, “1 cm” for “½″”, “pots” for “potting plants”, “3-5” for “4-7”
as §2

[7] = tested on: soybeans; experiment: Germination assay, soybeans coated with compound; format: in vivo, soybean; conditions: beans coated in 1% weight compound/weight bean
From the text: Soybeans were susceptible to Aphis glycines infestation and were not determined to be a biotype that was resistant to infestation, which could confide results. Germination typically occurred between 3-5 days after moistening.

[8] = tested on: Lamb's Quarters (Chenopodium album); experiment: Weed soil drench assay, lamb's quarters; format: in vivo; conditions: for Percentage mortality: Lamb's quarters, 40 mL of 5% solution, soil drench; for chlorosis and phytotoxicity: lamb's quarters, 40 ml of 5%, two days after application
Experimental: Lamb's quarters seeds were obtained from the Department of Agronomy at Iowa State University. Individual seeds were sown for each pot (6″ wide×4.5″ deep) with approximately 800 mL of soil for each plant. Only plants that germinated were used for the study. Plants were treated 1-2 weeks post emergence. Plants were watered every 2-3 days as needed.
as §1

[9] = tested on: Pigweed (Amaranthus palmeri); experiment: Weed soil drench assay, pigweed; format: in vivo; conditions: for Percentage mortality: Pigweed, 40 mL of 5% solution, soil drench; for chlorosis and phytotoxicity: pigweed, 40 ml of 5%, 2 days after application
Experimental: Pigweed plants were obtained from the wild in prairie fields in Iowa. Plants were carefully transplanted into pots (6″ wide×4.5″ deep) with approximately 800 mL of soil for each plant. Plants were maintained in a greenhouse under a constant temperature and light environment (25±5° C., 12 hr: 12 hr light: dark cycle). Plants were watered every 2-3 days as needed.
as §1

[10] = 2-days after treatment, Old Plants, 0.50%
[11] = 2-days after treatment, Old Plants, 1%
[12] = 2-days after treatment, Young Plants, 0.50%
[13] = 2-days after treatment, Young Plants, 1%
[14] = 3-weeks after treatment, Old Plants, 0.50%
[15] = 3-weeks after treatment, Old Plants, 1%
[16] = 3-weeks after treatment, Young Plants, 0.50%
[17] = 3-weeks after treatment, Young Plants, 1%
[18] = young plants, 2 days after exposure, both concentrations
[19] = listed as Carvacryloxyacetic acid

Row | SMILES | treated weeds killed, each species [1] [%] | pre-emergent effect on wood sorrel (words) [2] | qualitative growth assessment, pre-emergence [2] | pre-emergent effect on corn (words) [3] | qualitative growth assessment, pre-emergence [3] | effect on corn plants, soil drench ([4]; 3 weeks after exposure) | phytotoxicity (qualitative), soil drench [4, 10] | phytotoxicity (qualitative), soil drench [4, 11] | phytotoxicity (qualitative), soil drench [4, 12] | phytotoxicity (qualitative), soil drench [4, 13] | phytotoxicity (qualitative), soil drench [4, 14] | phytotoxicity (qualitative), soil drench [4, 15] | phytotoxicity (qualitative), soil drench [4, 16] | phytotoxicity (qualitative), soil drench [4, 17] | effect on corn plants, soil drench [4, 18] | phytotoxicity (qualitative), soil drench [5, 10] | phytotoxicity (qualitative), soil drench [5, 11] | phytotoxicity (qualitative), soil drench [5, 12] | phytotoxicity (qualitative), soil drench [5, 14] | phytotoxicity (qualitative), soil drench [5, 16] | also measured
1 | Cc1ccc(C(C)C)c(OCC(=O)O)c1 [thymyloxyacetic acid, 2-(2-isopropyl-5-methylphenoxy)acetic acid] | 100 | significantly inhibited | − | significantly inhibited; also recorded: capable of inhibiting the growth | − | caused phytotoxicity | -- | --- | - | - | XXX | XXX | XXX | XXX | did not show any significant effects | - | - | -- | - | XXX | pre-emergent effect on wood sorrel (words) ([2]; listed as Thymyloxyacetic acid): major inhibition of growth; effect on corn plants, soil drench ([4]; older plants, 2 days after treatment, 0.5% and 1%): significant phytotoxic effects; phytotoxicity (qualitative), soil drench [5, 13]: ---; phytotoxicity (qualitative), soil drench [5, 17]: XXX; effect on soybean plants, soil drench ([5]; old plant, 3 weeks after exposure, 0.5%): significant wilting and chlorosis; effect on soybean plants, soil drench ([5]; old plants, 3 weeks after exposure, 1%): experienced mortality; mortality of soybean plants, soil drench ([5]; young plants, 3 weeks after exposure): 100%; effect on soybean plants, soil drench ([5]; young plants, 2 days after exposure, 0.5%): Minor inhibition; effect on soybean plants, soil drench ([5]; young plants, 2 days after exposure, 1%): major inhibition; pre-emergent effect on soybeans (words) [6]: most susceptible; pre-emergent effect on soybeans (words) ([6]; listed as Thymyloxyacetic acid): major inhibition of growth; qualitative growth assessment, pre-emergence [6]: − − −; inhibition of soybean germination/growth (words) [7]: prevented the growth of soybeans; Percentage mortality ([8]; 2-days after treatment): 100%; Percentage mortality ([8]; 3-weeks after treatment): 100%; chlorosis and phytotoxicity [8]: significant chlorosis and phytotoxicity; Percentage mortality ([9]; 2-days after treatment): 100%; Percentage mortality ([9]; 3-weeks after treatment): 100%; chlorosis and phytotoxicity [9]: significant chlorosis and phytotoxicity
2 | Cc1ccc(C(C)C)cc1OCC(=O)O [carvacryloxyacetic acid, 2-(5-isopropyl-2-methylphenoxy)acetic acid] | 100 | completely prevented from growing | − − | significant inhibition in corn growth | − − | caused phytotoxicity | - | -- | - | - | XXX | XXX | XXX | -- | did not show any significant effects | -- | --- | --- | XXX | XXX | pre-emergent effect on wood sorrel (words) [2, 19]: significantly inhibited the growth; pre-emergent effect on corn (words) [3, 19]: significantly inhibited the growth; effect on corn plants, soil drench ([4]; 3 weeks, 1%): did not cause mortality; effect on corn plants, soil drench ([4]; older plants, 2-days, 0.5%): did not cause any significant effects; phytotoxicity (qualitative), soil drench [5, 17]: XXX; pre-emergent effect on soybeans (words) [6]: completely prevented from growing; pre-emergent effect on soybeans (words) [6, 19]: prevented the emergence of soybean plants entirely; qualitative growth assessment, pre-emergence [6]: XXX (plant death); inhibition of soybean germination/growth (words) [7]: prevented the growth of soybeans; Percentage mortality ([8]; 2-days after treatment): 100%; Percentage mortality ([8]; 3-weeks after treatment): 100%; chlorosis and phytotoxicity [8]: significant chlorosis and phytotoxicity; Percentage mortality ([9]; 2-days after treatment): 100%; Percentage mortality ([9]; 3-weeks after treatment): 100%; chlorosis and phytotoxicity [9]: significant chlorosis and phytotoxicity
